Experimental data published in the supplement of paper PMC10307832.

How the values were obtained:
Experiment in all cases: relative viability (nuclei count vs DMSO), 5 days (fraction); higher = more cells survive
[1] = test system: 201T
Procedure, shortened: (§1)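 Lung cancer cell lines in 1536-well plates were dosed by pin tool the day after seeding, either with one drug alone or with a fixed anchor-drug dose plus five library-drug doses (not always all listed) in √10 steps. After 5 days, cells were fixed and their nuclei stained in one step (final 0.05% Triton X-100, 1% formaldehyde, 1 ug/ml Hoechst), then counted on 4× images. Relative viability is the nuclei count in treated wells divided by that in vehicle wells. Values are medians of duplicate plates.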

[2] = test system: A-427
Procedure, shortened: as §1

[3] = test system: BEN
Procedure, shortened: as §1

[4] = test system: COR-L 105
Procedure, shortened: as §1

[5] = test system: COR-L23
Procedure, shortened: as §1

[6] = test system: EKVX
Procedure, shortened: as §1

[7] = test system: HARA
Procedure, shortened: as §1

[8] = test system: HCC-15
Procedure, shortened: as §1

[9] = test system: HCC-44
Procedure, shortened: as §1

[10] = test system: HCC-827
Procedure, shortened: as §1

[11] = test system: LK-2
Procedure, shortened: as §1

[12] = test system: NCI-H1437
Procedure, shortened: as §1

[13] = test system: NCI-H1666
Procedure, shortened: as §1

[14] = test system: NCI-H1792
Procedure, shortened: as §1

[15] = test system: NCI-H1975
Procedure, shortened: as §1

[16] = test system: NCI-H23
Procedure, shortened: as §1

[17] = test system: NCI-H358
Procedure, shortened: as §1

[18] = test system: NCI-H441
Procedure, shortened: as §1

[19] = test system: NCI-H596
Procedure, shortened: as §1

[20] = test system: NCI-H650
Procedure, shortened: as §1

[21] = test system: NCI-H838
Procedure, shortened: as §1

[22] = test system: SK-MES-1
Procedure, shortened: as §1

[23] = test system: SW 900
Procedure, shortened: as §1

C=C1C(=O)O[C@@H](CCCCCCCC)[C@@H]1C(=O)O [C-75] + N=C(N)NC(=N)NCCc1ccccc1 [Phenformin] (partner 250 µM)
relative viability ([1]; first compound 0.08 µM): 0.42 | relative viability ([1]; first compound 0.253 µM): 0.484 | relative viability ([1]; first compound 0.8 µM): 0.425 | relative viability ([1]; first compound 2.53 µM): 0.43 | relative viability ([1]; first compound 8 µM): 0.459 | relative viability ([2]; first compound 0.08 µM): 0.361 | relative viability ([2]; first compound 0.253 µM): 0.342 | relative viability ([2]; first compound 0.8 µM): 0.33 | relative viability ([2]; first compound 2.53 µM): 0.284 | relative viability ([2]; first compound 8 µM): 0.303 | relative viability ([3]; first compound 0.08 µM): 0.266 | relative viability ([3]; first compound 0.253 µM): 0.274 | relative viability ([3]; first compound 0.8 µM): 0.297 | relative viability ([3]; first compound 8 µM): 0.258 | relative viability ([4]; first compound 0.08 µM): 0.507 | relative viability ([4]; first compound 0.253 µM): 0.485 | relative viability ([4]; first compound 0.8 µM): 0.547 | relative viability ([4]; first compound 2.53 µM): 0.436 | relative viability ([4]; first compound 8 µM): 0.436 | relative viability ([5]; first compound 0.08 µM): 0.44 | relative viability ([5]; first compound 0.253 µM): 0.386 | relative viability ([5]; first compound 0.8 µM): 0.41 | relative viability ([5]; first compound 2.53 µM): 0.42 | relative viability ([5]; first compound 8 µM): 0.421 | relative viability ([6]; first compound 0.08 µM): 0.213 | relative viability ([6]; first compound 0.253 µM): 0.228 | relative viability ([6]; first compound 0.8 µM): 0.232 | relative viability ([6]; first compound 8 µM): 0.25 | relative viability ([7]; first compound 0.08 µM): 0.46 | relative viability ([7]; first compound 0.253 µM): 0.487 | relative viability ([7]; first compound 0.8 µM): 0.342 | relative viability ([7]; first compound 2.53 µM): 0.306 | relative viability ([7]; first compound 8 µM): 0.434 | relative viability ([8]; first compound 0.08 µM): 0.489 | relative viability ([8]; first compound 0.253 µM): 0.469 | relative viability ([8]; first compound 0.8 µM): 0.42 | relative viability ([8]; first compound 2.53 µM): 0.377 | relative viability ([8]; first compound 8 µM): 0.446 | relative viability ([9]; first compound 0.08 µM): 0.294 | relative viability ([9]; first compound 0.253 µM): 0.185 | relative viability ([9]; first compound 0.8 µM): 0.176 | relative viability ([9]; first compound 2.53 µM): 0.157 | relative viability ([9]; first compound 8 µM): 0.142 | relative viability ([10]; first compound 0.08 µM): 0.428 | relative viability ([10]; first compound 0.253 µM): 0.391 | relative viability ([10]; first compound 0.8 µM): 0.38 | relative viability ([10]; first compound 2.53 µM): 0.36 | relative viability ([10]; first compound 8 µM): 0.42 | relative viability ([11]; first compound 0.08 µM): 0.519 | relative viability ([11]; first compound 0.253 µM): 0.537 | relative viability ([11]; first compound 0.8 µM): 0.484 | relative viability ([11]; first compound 2.53 µM): 0.226 | relative viability ([11]; first compound 8 µM): 0.273 | relative viability ([12]; first compound 0.08 µM): 0.322 | relative viability ([12]; first compound 0.253 µM): 0.323 | relative viability ([12]; first compound 0.8 µM): 0.302 | relative viability ([12]; first compound 2.53 µM): 0.284 | relative viability ([12]; first compound 8 µM): 0.296 | relative viability ([13]; first compound 0.08 µM): 0.586 | relative viability ([13]; first compound 0.253 µM): 0.602 | relative viability ([13]; first compound 0.8 µM): 0.56 | relative viability ([13]; first compound 2.53 µM): 0.559 | relative viability ([13]; first compound 8 µM): 0.51 | relative viability ([14]; first compound 0.08 µM): 0.236 | relative viability ([14]; first compound 0.253 µM): 0.216 | relative viability ([14]; first compound 2.53 µM): 0.113 | relative viability ([14]; first compound 8 µM): 0.206 | relative viability ([15]; first compound 0.08 µM): 0.403 | relative viability ([15]; first compound 0.253 µM): 0.398 | relative viability ([15]; first compound 0.8 µM): 0.389 | relative viability ([15]; first compound 2.53 µM): 0.345 | relative viability ([15]; first compound 8 µM): 0.412 | relative viability ([16]; first compound 0.08 µM): 0.775 | relative viability ([16]; first compound 0.253 µM): 0.758 | relative viability ([16]; first compound 0.8 µM): 0.773 | relative viability ([16]; first compound 2.53 µM): 0.582 | relative viability ([16]; first compound 8 µM): 0.643 | relative viability ([17]; first compound 0.08 µM): 0.306 | relative viability ([17]; first compound 0.253 µM): 0.328 | relative viability ([17]; first compound 0.8 µM): 0.296 | relative viability ([17]; first compound 2.53 µM): 0.326 | relative viability ([17]; first compound 8 µM): 0.215 | relative viability ([18]; first compound 0.08 µM): 0.784 | relative viability ([18]; first compound 0.253 µM): 0.725 | relative viability ([18]; first compound 0.8 µM): 0.784 | relative viability ([18]; first compound 2.53 µM): 0.672 | relative viability ([18]; first compound 8 µM): 0.787 | relative viability ([19]; first compound 0.08 µM): 0.891 | relative viability ([19]; first compound 0.253 µM): 0.766 | relative viability ([19]; first compound 0.8 µM): 0.846 | relative viability ([19]; first compound 2.53 µM): 0.513 | relative viability ([19]; first compound 8 µM): 0.717 | relative viability ([20]; first compound 0.08 µM): 0.474 | relative viability ([20]; first compound 0.253 µM): 0.409 | relative viability ([20]; first compound 0.8 µM): 0.371 | relative viability ([20]; first compound 2.53 µM): 0.4 | relative viability ([20]; first compound 8 µM): 0.41 | relative viability ([21]; first compound 0.08 µM): 0.572 | relative viability ([21]; first compound 0.8 µM): 0.515 | relative viability ([21]; first compound 2.53 µM): 0.453 | relative viability ([21]; first compound 8 µM): 0.49 | relative viability ([22]; first compound 0.08 µM): 0.652 | relative viability ([22]; first compound 0.253 µM): 0.697 | relative viability ([22]; first compound 0.8 µM): 0.636 | relative viability ([22]; first compound 2.53 µM): 0.658 | relative viability ([22]; first compound 8 µM): 0.702 | relative viability ([23]; first compound 0.08 µM): 0.642 | relative viability ([23]; first compound 0.253 µM): 0.58 | relative viability ([23]; first compound 0.8 µM): 0.513 | relative viability ([23]; first compound 2.53 µM): 0.535 | relative viability ([23]; first compound 8 µM): 0.495
